Data on 16 compounds can be found in patent US9169252B2 (BRISTOL-MYERS SQUIBB COMPANY, priority 2014, dated 2015).

Like-named read-outs stand apart in the source and are kept apart here.

The test system of assay [1] is TLR2 induced IL-6 in peripheral blood mononuclear cells (PBMCs). Put plainly: PBMC TLR2 Induced IL-6 Assay. The format is cell-based, human. The note with it: human PBMCs, lipoteichoic acid stimulated, IL-6 by ELISA; for EC50: read-out: Cell EC50; for IC50: read-out: Cell IC50. The procedure:
PBMC TLR2 Induced IL-6 Assay
Peripheral blood mononuclear cells (PBMCs) were isolated from human blood containing the anti-coagulant EDTA (2.5 mM) by centrifugation over a FICOLL® gradient. PBMCs (250000 cells/well) were cultured in assay media (RPMI with 10% heat inactivated FCS) with compounds for 30 minutes at 37° C. in a 5% CO2 incubator. Following pretreatment with compounds, cells were stimulated for 5 hours with 10 µg/ml lipoteichoic acid (Invivogen, San Diego, Calif.), a TLR2 agonist. At the end of the culture, plates were centrifuged at 1800 rpm for 10 minutes to pellet the cells.
In general terms: An ELISA detects its analyte on a solid surface through an enzyme-linked reagent.

The target in assay [2] is IRAK4 (Homo sapiens (Human), UniProt Q9NWZ3). Put plainly: IRAK4 Inhibition Assay. Format: biochemical. The settings on record: ATP 500 μM; IRAK4 0.6 nM; read-out: IRAK4 IC50. On the procedure:
The assays were performed in U-bottom 384-well plates. […] The reaction was initiated by the combination of IRAK4 with substrates and test compounds. The reaction mixture was incubated at room temperature for 60 min. and terminated by adding 45 μL of 35 mM EDTA to each sample. The reaction mixture was analyzed on the Caliper LABCHIP® 3000 (Caliper, Hopkinton, Mass.) by electrophoretic separation of the fluorescent substrate and phosphorylated product.

Chain of IRAK4 (Q9NWZ3 whole entry, species assumed): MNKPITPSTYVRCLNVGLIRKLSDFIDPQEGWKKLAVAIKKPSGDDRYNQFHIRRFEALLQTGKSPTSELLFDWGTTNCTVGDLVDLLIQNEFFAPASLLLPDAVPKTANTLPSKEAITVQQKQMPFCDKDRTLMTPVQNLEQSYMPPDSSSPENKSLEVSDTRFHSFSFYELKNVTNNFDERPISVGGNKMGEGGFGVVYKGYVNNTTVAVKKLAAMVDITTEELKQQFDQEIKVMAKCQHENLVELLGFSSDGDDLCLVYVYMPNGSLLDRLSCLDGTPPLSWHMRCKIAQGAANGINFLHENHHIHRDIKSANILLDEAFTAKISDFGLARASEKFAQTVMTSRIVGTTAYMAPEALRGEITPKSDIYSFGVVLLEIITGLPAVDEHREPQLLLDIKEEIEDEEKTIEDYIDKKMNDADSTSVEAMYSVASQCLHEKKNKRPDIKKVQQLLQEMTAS

What is called EC50 is the concentration that produces a half-maximal response. Broadly, the IC50 is the concentration that gives 50% inhibition. Turning to `CC(CCF)Nc1cc(-n2ccc3cc(C#N)cnc32)ncc1C(=O)NC[C@@H](F)C(C)(C)O` (single isomer, unassigned) [Example 427], the EC50 in assay [1] came to 89 nM. For the same compound, the IC50 in assay [2] was 2.8 nM.

Regarding `CC(C)(O)[C@H](F)CNC(=O)c1cnc(-n2ccc3cc(C#N)cnc32)cc1NC1CCCC(CO)C1` (single isomer, unassigned) [Example 445], the EC50 in assay [1] (Homo sapiens, PBMC) came out at 108 nM. Moreover, the IC50 in assay [2] amounted to 5.3 nM.

In the case of `CC(C)CC(C)Nc1cc(-n2ccc3cc(C#N)cnc32)ncc1C(=O)NC[C@@H](F)C(C)(C)O` (single isomer, unassigned) [Example 454], in assay [1] (Homo sapiens, PBMC), the EC50 was found to be 757 nM and the IC50 turned out to be 289 nM. Also, the IC50 in assay [2] came to 5.9 nM.

On to `CC(O)CCNc1cc(-n2ccc3cc(C#N)cnc32)ncc1C(=O)NC[C@@H](F)C(C)(C)O` (single isomer, unassigned) [Example 461], for which, in assay [1], the EC50 was determined as 74 nM and the IC50 turned out to be 122 nM. For the same compound, the IC50 in assay [2] was determined as 2.5 nM.

`CC(O)CCNc1cc(-n2ccc3cc(C#N)cnc32)ncc1C(=O)NC[C@@H](F)C(C)(C)O` (single isomer, unassigned) [Example 462]: in assay [1], the EC50 stood at 66 nM and the 50% inhibitory concentration (IC50) stood at 398 nM. Moreover, in assay [2], the IC50 is 2.9 nM.

`CC(C)(O)[C@H](F)CNC(=O)c1cnc(-n2ccc3cc(C#N)cnc32)cc1NC1COCC1(F)F` (single isomer, unassigned) [Example 484]: the IC50 is 282 nM in assay [1] and 3.5 nM in assay [2].

`CC(C)(O)[C@H](F)CNC(=O)c1cnc(-n2ccc3cc(C#N)cnc32)cc1NC1COCC1(F)F` (single isomer, unassigned) [Example 485]: in assay [1] (Homo sapiens, PBMC), the EC50 is 198 nM. In addition, the results for the IC50 in assay [1] and in assay [2] were 1080 nM and 8.7 nM, respectively.

Turning to `CC(C)CC(O)[C@H](C)Nc1cc(-n2ccc3cc(C#N)cnc32)ncc1C(=O)NC[C@@H](F)C(C)(C)O` (single isomer, unassigned) [Example 496], the IC50 was found to be 197 nM in assay [1] (Homo sapiens, PBMC) and 10.9 nM in assay [2].

`CC(C)C(O)CNc1cc(-n2ncc3cc(Cl)cnc32)ncc1C(=O)NC[C@@H](F)C(C)(C)O` (single isomer, unassigned) [Example 594]: the IC50 in assay [1] (Homo sapiens, PBMC) was determined as 319 nM; in assay [2] it was 17.5 nM.

For `CC(C)C(O)CNc1cc(-n2ncc3cc(Cl)cnc32)ncc1C(=O)NC[C@@H](F)C(C)(C)O` (single isomer, unassigned) [Example 596], the IC50 in assay [1] stood at 578 nM; in assay [2] it was 18.2 nM.

Regarding `CC(C)(O)[C@H](F)CNC(=O)c1cnc(-n2ncc3cc(C#N)cnc32)cc1NC1CCC(F)(F)C1` (single isomer, unassigned) [Example 614], the concentration giving a half-maximal response (EC50) in assay [1] (Homo sapiens, PBMC) came out at 481 nM. For the same compound, the IC50 in assay [1] came to 491 nM; in assay [2], 7.7 nM.

Consider `CC(C)(O)[C@H](F)CNC(=O)c1cnc(-n2ncc3cc(C#N)cnc32)cc1NC1CCC(F)(F)C1` (single isomer, unassigned) [Example 615], for which the IC50 stood at 190 nM in assay [1] and 2.3 nM in assay [2].

In the case of `CC(C)(O)[C@H](F)CNC(=O)c1cnc(-n2ncc3cc(F)cnc32)cc1NC1CCC(F)C1` (single isomer, unassigned) [Example 618], the EC50 in assay [1] (Homo sapiens, PBMC) was 127 nM. Also, the IC50 in assay [2] was determined as 5.8 nM.

For the compound `CC(C)(O)[C@H](F)CNC(=O)c1cnc(-n2ncc3cc(F)cnc32)cc1NC1CCC(F)C1` (single isomer, unassigned) [Example 619], the EC50 in assay [1] stood at 119 nM. Further, in assay [2], the IC50 was 4 nM.

Take `CC(C)(O)[C@H](F)CNC(=O)c1cnc(-n2ncc3cc(C#N)cnc32)cc1N[C@@H]1C[C@H]1CO` (single isomer, unassigned) [Example 642]: the IC50 in assay [1] (Homo sapiens, PBMC) was determined as 197 nM; in assay [2], 4.8 nM.

As for `CC(C)(O)[C@H](F)CNC(=O)c1cnc(-n2ncc3cc(C#N)cnc32)cc1N[C@@H]1C[C@H]1CO` (single isomer, unassigned) [Example 643], the IC50 in assay [1] worked out at 320 nM; in assay [2] it was 5.4 nM.
